One experiment has as its system MV4-11 cells. Kind of experiment: MV4-11 cellular proliferative assay, Assay Format A (CellTiter-Glo, 120 h). In kind it is cell-based. The following applies: Homo sapiens, Assay format A, 120 h, read-out: IC50 (MV4-11 cellular proliferative assay). The method, then:
An MV4-11 proliferation assay was used to test the ability of compounds to reduce cell viability. MV4-11 cells (ATCC #CRL9591) were grown in IMDM medium (11510596, Gibco) supplemented with 10% fetal bovine serum (F7524, Gibco) and 1% Penicillin/Streptomycin (15140-122, Gibco) at 37° C. with 5% CO2. Cells were seeded in 384-well Elplasia plates (4447, Corning) at a density of 50 cells/well and treated with vehicle (DMSO) or compounds (10 serial semi-log dilutions, 30 μM as top concentration).
After 120 hours of treatment, cells were incubated for 10 min at RT with the CellTiter-Glo (CTG) reagent (G7571, Promega). Measurement of the luminescence signal was performed on a microplate reader (Ensight, PerkinElmer). CTG reagent measures the amount of ATP, which is directly proportional to the number of cells, to determine the number of viable cells in culture.
The data were analysed as follows:
[formula] • where x is the measured raw signal value of a well, (cr) is the median of the measured signal values for the Central Reference (DMSO) wells on a plate, (sr) is the median of the measured signal values for the Scale Reference (reference compound) wells on a plate.
[formula] • where the experimental set-up assumes the Hill parameters in certain ranges: S0~Central Reference (CR) from normalization (=Bottom), Sinf~Scale Reference (SR) from normalization (=Top), nHill ~1, AC50~within the measured concentration range.

In another experiment the target is T1, MLLT1 (Homo sapiens, UniProt Q03111).
T1 sequence (Q03111 1-559): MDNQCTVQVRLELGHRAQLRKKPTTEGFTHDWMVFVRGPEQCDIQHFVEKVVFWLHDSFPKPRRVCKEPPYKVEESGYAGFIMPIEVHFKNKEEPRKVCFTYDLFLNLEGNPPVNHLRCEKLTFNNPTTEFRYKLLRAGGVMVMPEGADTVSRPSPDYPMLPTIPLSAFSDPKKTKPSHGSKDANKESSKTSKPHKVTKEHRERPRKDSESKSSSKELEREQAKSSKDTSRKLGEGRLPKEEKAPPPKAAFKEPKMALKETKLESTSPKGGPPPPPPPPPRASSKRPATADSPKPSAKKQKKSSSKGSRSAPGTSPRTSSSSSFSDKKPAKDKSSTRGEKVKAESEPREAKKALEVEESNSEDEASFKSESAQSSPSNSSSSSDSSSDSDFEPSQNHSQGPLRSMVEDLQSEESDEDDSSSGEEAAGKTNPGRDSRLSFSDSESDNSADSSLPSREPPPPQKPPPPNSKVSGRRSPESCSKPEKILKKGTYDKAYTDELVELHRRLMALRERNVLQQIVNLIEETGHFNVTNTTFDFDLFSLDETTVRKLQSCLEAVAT
Kind of experiment: MLLT1 degradation assay in MV4-11 cells (JESS, 24 h). In kind it is cell-based. The following applies: vs DMSO control. On the set-up: endogenous in cells; host or cells: MV4-11 (ATCC CRL-9591). The procedure, abridged:
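MV4-11 cells treated at 1000, 100 and 10 nM (0.1% DMSO) for 24 h at 37° C; lysates (4 ug protein) run on JESS capillary immunoassay with MLLT1 and GAPDH antibodies. Peak areas give % degradation versus DMSO, binned A (≥75%) to D (<25%).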

`Cc1nn(CCCCCCCCNc2cccc3c2C(=O)N(C2CCC(=O)NC2=O)C3=O)c2cc(C(=O)Nc3cc4[nH]c([C@H]5CCCN5C)c(Cl)c4cn3)ccc12` (stereo partly drawn) [Example 18, N-(3-chloro-2-((R)-1-methylpyrrolidin-2-yl)-1H-pyrrolo[3,2-c]pyridin-6-yl)-1-(8-((2-(2,6-dioxopiperidin-3-yl)-1,3-dioxoisoindolin-4-yl)amino)octyl)-3-methyl-1H-indazole-6-carboxamide]: the half-maximal inhibitory concentration (IC50) with MV4-11 cells is less than 100 nM. Besides, at MLLT1, the “MLLT1% Degradation @ 0.01 μM” value is on record as “A (Category A: A≥75% degradation)”, the “MLLT1% Degradation @ 0.1 μM” value was “A (Category A: A≥75% degradation)” and the “MLLT1% Degradation @ 1 μM” value was “A (Category A: A≥75% degradation)”.
On to `Cc1nn(CCCCNc2cccc3c2C(=O)N(C2CCC(=O)NC2=O)C3=O)c2cc(C(=O)Nc3cc4[nH]c([C@H]5CCCN5C)cc4cn3)ccc12` (stereo partly drawn) [Example 21, 1-(4-((2-(2,6-dioxopiperidin-3-yl)-1,3-dioxoisoindolin-4-yl)amino)butyl)-3-methyl-N-(2-((R)-1-methylpyrrolidin-2-yl)-1H-pyrrolo[3,2-c]pyridin-6-yl)-1H-indazole-6-carboxamide], for which the IC50 in the experiment on MV4-11 cells was less than 100 nM. In addition, on MLLT1, the “MLLT1% Degradation @ 0.01 μM” value is “A (Category A: A≥75% degradation)”, the “MLLT1% Degradation @ 0.1 μM” value is reported as “A (Category A: A≥75% degradation)” and the “MLLT1% Degradation @ 1 μM” value is “A (Category A: A≥75% degradation)”.
Consider `Cc1nn(CCCCCCNc2cccc3c2C(=O)N(C2CCC(=O)NC2=O)C3=O)c2cc(C(=O)Nc3cc4[nH]c([C@H]5CCCN5C)cc4cn3)ccc12` (stereo partly drawn) [Example 22, 1-(6-{[2-(2,6-dioxopiperidin-3-yl)-1,3-dioxoisoindol-4-yl]amino}hexyl)-3-methyl-N-{2-[(2R)-1-methylpyrrolidin-2-yl]-1H-pyrrolo[3,2-c]pyridin-6-yl}indazole-6-carboxamide], for which the IC50 in the experiment with MV4-11 cells was less than 100 nM. At MLLT1, the “MLLT1% Degradation @ 0.01 μM” value was “A (Category A: A≥75% degradation)”, the “MLLT1% Degradation @ 0.1 μM” value is “A (Category A: A≥75% degradation)” and the “MLLT1% Degradation @ 1 μM” value is given as “A (Category A: A≥75% degradation)”.
In the case of `Cc1nn(CCCCCN2CCN(c3cc4c(cc3F)C(=O)N(C3CCC(=O)NC3=O)C4=O)CC2)c2cc(C(=O)Nc3cc4[nH]c([C@H]5CCCN5C)cc4cn3)ccc12` (stereo partly drawn) [Example 23, 1-(5-(4-(2-(2,6-dioxopiperidin-3-yl)-6-fluoro-1,3-dioxoisoindolin-5-yl)piperazin-1-yl)pentyl)-3-methyl-N-(2-((R)-1-methylpyrrolidin-2-yl)-1H-pyrrolo[3,2-c]pyridin-6-yl)-1H-indazole-6-carboxamide], the IC50 with MV4-11 cells was less than 100 nM. In addition, at MLLT1, the “MLLT1% Degradation @ 0.01 μM” value is “A (Category A: A≥75% degradation)”, the “MLLT1% Degradation @ 0.1 μM” value is “A (Category A: A≥75% degradation)” and the “MLLT1% Degradation @ 1 μM” value is given as “A (Category A: A≥75% degradation)”.
For `Cc1nn(CCOCCOCCNc2cccc3c2C(=O)N(C2CCC(=O)NC2=O)C3=O)c2cc(C(=O)Nc3cc4[nH]c([C@H]5CCCN5C)cc4cn3)ccc12` (stereo partly drawn) [Example 25, 1-(2-(2-(2-((2-(2,6-dioxopiperidin-3-yl)-1,3-dioxoisoindolin-4-yl)amino)ethoxy)ethoxy)ethyl)-3-methyl-N-(2-((R)-1-methylpyrrolidin-2-yl)-1H-pyrrolo[3,2-c]pyridin-6-yl)-1H-indazole-6-carboxamide], in the experiment on MV4-11 cells, the IC50 is less than 100 nM. On MLLT1, the “MLLT1% Degradation @ 0.1 μM” value is recorded as “A (Category A: A≥75% degradation)” and the “MLLT1% Degradation @ 1 μM” value is given as “A (Category A: A≥75% degradation)”.
On to `Cc1nn(CCOCCNc2cccc3c2C(=O)N(C2CCC(=O)NC2=O)C3=O)c2cc(C(=O)Nc3cc4[nH]c([C@H]5CCCN5C)cc4cn3)ccc12` (stereo partly drawn) [Example 26, 1-(2-(2-((2-(2,6-dioxopiperidin-3-yl)-1,3-dioxoisoindolin-4-yl)amino)ethoxy)ethyl)-3-methyl-N-(2-((R)-1-methylpyrrolidin-2-yl)-1H-pyrrolo[3,2-c]pyridin-6-yl)-1H-indazole-6-carboxamide], for which the IC50 with MV4-11 cells is less than 100 nM. At MLLT1, the “MLLT1% Degradation @ 0.1 μM” value was “A (Category A: A≥75% degradation)” and the “MLLT1% Degradation @ 1 μM” value is listed as “A (Category A: A≥75% degradation)”.
In the case of `Cc1nn(CCCC2CCN(c3cccc4c3C(=O)N(C3CCC(=O)NC3=O)C4=O)CC2)c2cc(C(=O)Nc3cc4[nH]c([C@H]5CCCN5C)cc4cn3)ccc12` (stereo partly drawn) [Example 27, 1-(3-(1-(2-(2,6-dioxopiperidin-3-yl)-1,3-dioxoisoindolin-4-yl)piperidin-4-yl)propyl)-3-methyl-N-(2-((R)-1-methylpyrrolidin-2-yl)-1H-pyrrolo[3,2-c]pyridin-6-yl)-1H-indazole-6-carboxamide], the IC50 with MV4-11 cells was less than 100 nM. Also, on MLLT1, the “MLLT1% Degradation @ 0.01 μM” value was “A (Category A: A≥75% degradation)”, the “MLLT1% Degradation @ 0.1 μM” value was “A (Category A: A≥75% degradation)” and the “MLLT1% Degradation @ 1 μM” value is “A (Category A: A≥75% degradation)”.
In the case of `Cc1nn(CCCCCC2CCN(c3cccc4c3C(=O)N(C3CCC(=O)NC3=O)C4=O)CC2)c2cc(C(=O)Nc3cc4[nH]c([C@H]5CCCN5C)cc4cn3)ccc12` (stereo partly drawn) [Example 29, 1-(5-(1-(2-(2,6-dioxopiperidin-3-yl)-1,3-dioxoisoindolin-4-yl)piperidin-4-yl)pentyl)-3-methyl-N-(2-((R)-1-methylpyrrolidin-2-yl)-1H-pyrrolo[3,2-c]pyridin-6-yl)-1H-indazole-6-carboxamide], the IC50 in the experiment with MV4-11 cells is less than 100 nM. In addition, at MLLT1, the “MLLT1% Degradation @ 0.01 μM” value is given as “B (Category B: 50%≤B<75% degradation)”, the “MLLT1% Degradation @ 0.1 μM” value was “A (Category A: A≥75% degradation)” and the “MLLT1% Degradation @ 1 μM” value is “A (Category A: A≥75% degradation)”.
With `Cc1nn(CCCCCC#Cc2cccc3c2CN(C2CCC(=O)NC2=O)C3=O)c2cc(C(=O)Nc3cc4[nH]c([C@H]5CCCN5C)cc4cn3)ccc12` (stereo partly drawn) [Example 30, 1-(7-(2-(2,6-dioxopiperidin-3-yl)-1-oxoisoindolin-4-yl)hept-6-yn-1-yl)-3-methyl-N-(2-((R)-1-methylpyrrolidin-2-yl)-1H-pyrrolo [3,2-c]pyridin-6-yl)-1H-indazole-6-carboxamide], the IC50 in the experiment on MV4-11 cells is less than 100 nM. Further, at MLLT1, the “MLLT1% Degradation @ 0.01 μM” value is reported as “A (Category A: A≥75% degradation)”, the “MLLT1% Degradation @ 0.1 μM” value was “A (Category A: A≥75% degradation)” and the “MLLT1% Degradation @ 1 μM” value is “A (Category A: A≥75% degradation)”.
Regarding `Cc1nn(CCCOCC#Cc2cccc3c2CN(C2CCC(=O)NC2=O)C3=O)c2cc(C(=O)Nc3cc4[nH]c([C@H]5CCCN5C)cc4cn3)ccc12` (stereo partly drawn) [Example 31, 1-(3-((3-(2-(2,6-dioxopiperidin-3-yl)-1-oxoisoindolin-4-yl)prop-2-yn-1-yl)oxy)propyl)-3-methyl-N-(2-((R)-1-methylpyrrolidin-2-yl)-1H-pyrrolo[3,2-c]pyridin-6-yl)-1H-indazole-6-carboxamide], the IC50 with MV4-11 cells was less than 100 nM. Moreover, at MLLT1, the “MLLT1% Degradation @ 0.01 μM” value is on record as “C (Category C: 25%≤C<50% degradation)”, the “MLLT1% Degradation @ 0.1 μM” value is on record as “B (Category B: 50%≤B<75% degradation)” and the “MLLT1% Degradation @ 1 μM” value is listed as “A (Category A: A≥75% degradation)”.
In the case of `Cc1nn(CCCC#Cc2cccc3c2CN(C2CCC(=O)NC2=O)C3=O)c2cc(C(=O)Nc3cc4[nH]c([C@H]5CCCN5C)cc4cn3)ccc12` (stereo partly drawn) [Example 32, 1-(5-(2-(2,6-dioxopiperidin-3-yl)-1-oxoisoindolin-4-yl)pent-4-yn-1-yl)-3-methyl-N-(2-((R)-1-methylpyrrolidin-2-yl)-1H-pyrrolo[3,2-c]pyridin-6-yl)-1H-indazole-6-carboxamide], the IC50 with MV4-11 cells was less than 100 nM. In addition, at MLLT1, the “MLLT1% Degradation @ 0.01 μM” value is “B (Category B: 50%≤B<75% degradation)”, the “MLLT1% Degradation @ 0.1 μM” value is “A (Category A: A≥75% degradation)” and the “MLLT1% Degradation @ 1 μM” value is on record as “B (Category B: 50%≤B<75% degradation)”.

The record behind these values is patent publication US20260199484A1, “PROTAC DEGRADERS OF MLLT1 AND/OR MLLT3” (DARK BLUE THERAPEUTICS LTD, priority 2024, published 2026).
